Molecules are shown by their SMILES.

The test system of assay [1] is Epidermal Growth Factor (EGF)-responsive tumors. The conditions noted are these: disclosed in WO 97/02266; cited from earlier work.
The next assay has as its system NCI-H520. Briefly: Western blot of clusterin induction in NCI-H520 cells. Type of assay: cell-based, human. The conditions noted are these: NCI-H520 cells (do not express EGFR), 300 nM, 24 h, vs 0.03% DMSO. On the procedure:
An EGFR tyrosine kinase inhibitor is dissolved in DMSO to obtain a 10 mM stock solution. The stock solution is further diluted in culture medium to final concentrations of 10 nM to 3 μM. 3.5 million cells/100 mm dish/12 ml culture medium are incubated for 24 h in 5% CO2 at 37° C. The medium is replaced with medium containing the EGFR tyrosine kinase inhibitor or DMSO. Cells are incubated for 4 to 32 h. The frozen pellets are lysed in 500 μl of lysis buffer (50 mM Tris-HCl pH 7.5, 1% Sodium Dodecyl Sulfate (SDS)). To shear genomic DNA, the cell lysates are processed in a FastPrep instrument for 20 sec at a speed rating of 4, using the green […] tubes (Bio101#6040-6010). Protein concentrations are determined according to the PIERCE-method (BCA Protein Assay, Reagent A and B). Protein concentration of lysates is adjusted to 1 μg/μl with lysis buffer. 4 parts of cell lysates are mixed with 1 part of 5 fold concentrated Laemmli buffer, the lysates are stored at -20° C. 40 μl of cell lysate is heated for 3 min to 95° C. and directly loaded on to 10% or 15% SDS-PAGE gels. The gels are run at 130 V for 90 min under standard conditions. The separated proteins are semi-dry blotted on to a PVDF membrane (Immobilon-P, Millipore #IPVH 202 00) for 70 min with 45 mA per blot. […]
For orientation: Immunoblotting shows a protein as a band on a membrane.

Consider `C[C@@H](Nc1ncnc2[nH]c(-c3ccc(O)cc3)cc12)c1ccccc1` [COMPOUND A, (R)-6-(4-hydroxy-phenyl)-4-[(1-phenyl-ethyl)-amino]-7H-pyrrolo[2,3-d]pyrimidine], for which the “Anti-proliferative activity against EGF-responsive tumors” value in assay [1] was “exhibits anti-proliferative activity”. Further, in the assay with NCI-H520, the “Clusterin induction, Western blot (FIG. 4)” value is “no detectable clusterin levels”.
